In PubChem BioAssay AID1159557 (GlaxoSmithKline (GSK), 2015):
Active and inactive are the calls of the source. The rule behind the calls is not given here.

Test system: Trypanosoma brucei growth inhibition
Assay: T. brucei growth inhibition (AID 1159557);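 note: parasites exposed to compound for 48 h before the resazurin readout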

Row | Structure (SMILES) | IC50
1 | CN(Cc1ccc(F)cc1)c1ccc(OCC(=O)N2CCCCC2c2cccnc2)nn1 (stereo not given) | > 40000 nM (inactive)
2 | Cc1nn(-c2nc(N)nc(-c3ccccn3)n2)c(N)c1-c1ccccc1 | 2000 nM
3 | CCOc1ccc(CN(C)Cc2nc(N)nc(Nc3ccc(C)cc3)n2)cc1 | 2500 nM
4 | c1cc(-c2ncc(-c3ccn[nH]3)s2)ccn1 | 20000 nM
5 | Cn1nc([N+](=O)[O-])nc1Oc1ccc(C(=O)c2ccccc2)cc1 | 20000 nM
6 | O=C(c1cnn(-c2ccccc2)n1)N1CCCC(n2ccnc2)C1 (stereo not given) | > 40000 nM (inactive)
7 | O=C(Nc1nc2ccccc2[nH]1)c1ccc2nc[nH]c2c1 | > 40000 nM (inactive)
8 | COc1ccc(S(=O)(=O)Nc2ccccc2OC)cc1NC(=O)CCCc1c[nH]c2ccccc12 | 13000 nM
9 | COc1ccc([N+](=O)[O-])cc1NC(=O)Nc1cccc(Cl)c1 | 6300 nM
10 | Cc1cccc(N2CCCN(Cc3c[nH]c4ccccc34)CC2)n1 | 13000 nM
11 | O=C(NCC(c1cccnc1)N1CCc2ccccc2C1)C(=O)Nc1cccc(Cl)c1 (stereo not given) | 16000 nM
12 | COc1ccc(C2C3CCCCC3(O)CCN2CC(=O)Nc2ccc(Cl)cc2Cl)cc1 (stereo not given) | 7900 nM
13 | CN(Cc1nc2ccccc2s1)C(=O)C=Cc1cc2ccccc2o1 | 32000 nM
14 | Cc1[nH]c2ccccc2c(=O)c1Cc1c(C)[nH]c2ccccc2c1=O | > 40000 nM (inactive)
15 | O=C(NC(c1ccc(Cl)cc1)c1cnccn1)C1CCN(C(=O)Nc2cccc(C(F)(F)F)c2)CC1 (stereo not given) | 13000 nM
16 | Cc1ccc(C)c(OC2CCN(C(=O)C(C)n3ccnc3)CC2)c1 (stereo not given) | > 40000 nM (inactive)
17 | COc1ccc(C(C)(C)C)cc1S(=O)(=O)n1ccnc1 | 40000 nM
18 | CN(C)CCN(C)Cc1ccc(Cl)cc1NS(=O)(=O)c1ccc(Cl)c(Cl)c1 | 7900 nM
19 | CCOc1cnn(C)c(=O)c1Nc1ccc(C(=O)NCc2ccc(F)cc2)cc1 | > 40000 nM (inactive)
20 | COc1ccc(Nc2nc(-c3ccccn3)cs2)c(OC)c1 | 20000 nM

Row | Structure (SMILES) | IC50
21 | NC(=O)c1ccc(-c2cccc(OCCN3CCN(C4CCCCC4)CC3)c2)cc1 | 16000 nM
22 | COCc1cc(Nc2ccc(Cl)cc2)nc(-c2ccccn2)n1 | 20000 nM
23 | CN(CCOc1ccc(Cl)cc1)Cc1nc(N)nc(N(C)C)n1 | 25000 nM
24 | COc1ccc(-c2nc3ncccc3o2)cc1NC(=O)c1cccs1 | 1300 nM
25 | Nc1nc(-c2ccccc2)cc(-c2nc3ncccc3[nH]2)n1 | 10000 nM
26 | N#Cc1nc(C=Cc2ccccc2)oc1NCc1cccnc1 | 16000 nM
27 | O=c1[nH]ccc2ccc(-c3ccncc3)cc12 | 32000 nM
28 | CCC(=O)Nc1ccc(C(=O)Nc2ccccc2-c2ccccc2)cc1 | 20000 nM
29 | O=C(Nc1cccc(F)c1)N1CCC(Oc2cccc(-c3cccnc3)c2)CC1 | 25000 nM
30 | CN(C)Cc1ccc(N2CCC(NS(=O)(=O)c3ccc(Cl)cc3)CC2)cc1 | 25000 nM
31 | CC(C)c1nn(-c2nc(N)nc(-c3ccccn3)n2)c(N)c1C1CCCCC1 | 7900 nM
32 | N#Cc1cccc(Nc2nccc(N3CCC(NS(=O)(=O)c4cccc(C#N)c4)CC3)n2)c1 | 6300 nM
33 | Cc1nc(N2CC(C)OC(C)C2)sc1C(=O)Nc1ccc2c(c1)OCO2 (stereo not given) | 40000 nM
34 | CCc1cc(C(=O)Nc2nccn2-c2ccccc2)cs1 | 3200 nM
35 | Cc1cc(-c2cccc3ccccc23)nc2nc(N)nc(N)c12 | 32000 nM
36 | Cc1ccc(NC(C)C(=O)Nc2ccc(C#N)cc2)cc1S(=O)(=O)N1CCCCC1 (stereo not given) | 7900 nM
37 | Cn1c(CN2CCN(c3ncc(C(F)(F)F)cc3Cl)CC2)nc2ccncc21 | 6300 nM
38 | Cc1ccccc1OCC(=O)N1CCCN(c2cccnn2)CC1 | > 40000 nM (inactive)
39 | Cc1nc2nc(C)c(Cc3ccc(C(C)C)cc3)c(=O)n2[nH]1 | > 40000 nM (inactive)
40 | NC(=O)c1cc(NC(=O)c2ccccc2COc2ccccc2)ccc1Cl | 16000 nM

Row | Structure (SMILES) | IC50
41 | CN(C)S(=O)(=O)c1cccc(CSc2nnc(-c3ccc4c(c3)OCO4)o2)c1 | 32000 nM
42 | O=C(CN(Cc1ccccn1)Cc1ccccn1)NCc1csc(-c2cccs2)n1 | 20000 nM
43 | O=C(CSc1nnc(-c2ccc3c(c2)OCO3)o1)N(Cc1ccco1)CC(F)(F)F | > 40000 nM (inactive)
44 | Cc1ccc(S(=O)(=O)Cn2nnnc2C(c2cccnc2)N2CCN(c3ccccc3)CC2)cc1 (stereo not given) | 32000 nM
45 | COc1ccc(Cl)cc1CC(=O)Nc1n[nH]c(-c2ccccn2)n1 | 16000 nM
46 | Cc1ccc(Nc2nc(N)nc(CNC(c3nc4ccccc4[nH]3)C(C)C)n2)cc1 (stereo not given) | 7900 nM
47 | O=C(CSc1ccc(F)cc1)N[C@@H](Cc1cnc[nH]1)C(=O)NCCc1ccccc1 | > 40000 nM (inactive)
48 | O=C(Nc1ccc(Br)c(Cl)c1)Nc1ccc2c(c1)OCO2 | 7900 nM
49 | Cc1cn[nH]c1C1CCCN(Cc2nc3ccccc3n2C)C1 (stereo not given) | 6300 nM
50 | Cc1nc2c(-c3ncn[nH]3)cc(NC(=O)Cc3ccccc3)cn2c1C | 3200 nM
51 | CCN(Cc1ccncc1)Cc1ccc(NC(=O)c2cc(-c3ccc(F)cc3)n[nH]2)cc1 | > 40000 nM (inactive)
52 | Oc1cccnc1-c1n[nH]c(Cc2ccccc2)n1 | 5000 nM
53 | CCC1Oc2cc(S(=O)(=O)N(C)CC(=O)N3CCc4ccccc4C3)c(C)cc2NC1=O (stereo not given) | 25000 nM
54 | O=C(c1ccc(Cl)cc1)c1ccc(OC(=O)N2CCOCC2)cc1 | 7900 nM
55 | COc1ccc(S(=O)(=O)NC(C)C)cc1Nc1ncc(-c2cccc(F)c2)cn1 | 20000 nM
56 | COc1ccc([N+](=O)[O-])cc1NC(=O)c1cc(Cl)ccc1O | 25000 nM
57 | Cc1ccc2onc(Nc3ccnc(Nc4cccc(S(C)(=O)=O)c4)n3)c2c1 | 6300 nM
58 | Cn1c(CC(=O)NNC(=O)c2ccc3ccccc3n2)nc2ccccc21 | 7900 nM
59 | O=C(Nc1ccc(C(F)(F)F)cc1)Nc1cccc([N+](=O)[O-])c1 | 2000 nM
60 | O=C(COc1nn(-c2ccccc2)c2ncccc12)NCc1ccccc1 | > 40000 nM (inactive)

Second part, the compound after the results:

Row | IC50 | Structure (SMILES)
61 | 250 nM | COc1ccc(C(=O)Nc2ccc(NC(=O)CO)cc2)cc1
62 | 160 nM | CS(=O)(=O)NC1CCC(Nc2ncc(Br)c(Nc3ccccc3C(N)=O)n2)CC1 (stereo not given)
63 | 130 nM | COc1ccc(-c2csc(NC(=O)c3ccc([N+](=O)[O-])s3)n2)cc1OC
64 | 500 nM | CCS(=O)(=O)c1cccc(C(=O)Nc2nc(-c3ccccn3)cs2)c1
65 | 130 nM | Cc1cc(NC(=O)C2CC2)ccc1OC1CCN(Cc2ccco2)CC1
66 | 160 nM | NC(=O)c1cc(F)ccc1Nc1nc(NC2CCC(O)CC2)ncc1Cl (stereo not given)
67 | 320 nM | O=C(NCc1nnc2n1CCCCC2)c1csc(-c2ccccc2)n1
68 | 100 nM | Cc1ccc(NC(=O)c2ccnc(N3CCCC3)c2)cc1-c1cc(C(N)=O)ccc1C
69 | 320 nM | COc1ccc(C2CC(c3ccccc3Cl)=NN2C(=O)CNC(=O)C2CCC2)cc1 (stereo not given)
70 | 130 nM | COc1ccc(C(=O)NC2CCN(CCn3c(=O)ccc4ncc(F)cc43)CC2)cc1Cl
71 | 1000 nM | Cc1cccc(Nc2nc(-c3ccccn3)cs2)n1
72 | 400 nM | Cc1c(Nc2cc(C3CC3)[nH]n2)ccc(C#N)c1Cl
73 | 790 nM | CN(Cc1nc2ccc(C(=O)NCC3CCCCC3)cc2[nH]1)C1CCCc2cccnc21 (stereo not given)
74 | 320 nM | COc1ccc2ncc(Cl)c(CCN3CC[C@H](NCc4cc5c(cn4)OCS5)[C@@H](O)C3)c2n1
75 | 320 nM | O=C(Nc1nccs1)c1ccccc1Cn1cc([N+](=O)[O-])cn1
76 | 500 nM | O=C(c1ccccc1)N1CCC(C(=O)N2CCC(Oc3ccccc3Cl)CC2)CC1
77 | 1000 nM | O=C(NC1CCN(C2Cc3ccc(NS(=O)(=O)c4cc(F)cc(F)c4)cc3C2)CC1)C1CC1 (stereo not given)
78 | 400 nM | CN1C(=O)c2ccccc2Sc2ccc(NC(=O)NCc3ccco3)cc21
79 | 1000 nM | O=C(NCC1CCCCC1)c1cnns1
80 | 400 nM | COc1ccc(S(=O)(=O)Nc2ccc(CN3CCN(C(=O)c4cccc(C#N)c4)CC3)cc2)cc1
81 | 400 nM | CS(=O)(=O)c1ccccc1C(=O)N(Cc1ccccc1)c1ccccc1
82 | 320 nM | CCN(CC)S(=O)(=O)c1ccc(C)c(NC(=O)c2cc(Cl)c3c(c2)OCO3)c1
83 | 630 nM | CNC(=O)C1Cc2ccccc2N1C(=O)COc1cccc(OC)c1 (stereo not given)
84 | 160 nM | CC(C)C[C@H](NC(=O)c1csc(-c2cccs2)n1)C(=O)NC1(C#N)CC1
85 | 320 nM | NC(=O)c1ncccc1Nc1nc(NC2CCC(O)CC2)ncc1Br (stereo not given)

Row | IC50 | Structure (SMILES)
86 | 130 nM | Cc1[nH]nc(Nc2ccnc3[nH]ccc23)c1C
87 | 790 nM | O=C(Cn1cnc2c(-c3ccccc3)csc2c1=O)N1CCCCC1
88 | 50 nM | CN(C)Cc1cccc(Nc2nccc(-c3ccc(NCCN)c(C#N)c3)n2)c1
89 | 10 nM | Cc1sc(C)c(C(F)(F)F)c1CNCCCNc1cc(=O)c2ccccc2[nH]1
90 | 790 nM | COc1ccc(C(=O)Nc2c(C)nn(COc3cccc(C(F)(F)F)c3)c2C)cc1
91 | 200 nM | CC1CCCN(S(=O)(=O)c2ccc(C(=O)Nc3nc(-c4ccccn4)cs3)cc2)C1 (stereo not given)
92 | 200 nM | Cc1ccnc(NS(=O)(=O)c2ccc(NC(=O)c3ccc([N+](=O)[O-])s3)cc2)n1
93 | 790 nM | Oc1c(-c2n[nH]c(CCc3ccccc3)n2)ncc2cccnc12
94 | 630 nM | Cn1nccc1NC(=O)Cn1ccc(-c2ccncc2)n1
95 | 630 nM | CC(=O)NC1(c2ccccc2)CCN(CC(=O)Nc2ccccc2-c2ccccc2)CC1
96 | 250 nM | O=C(Nc1ccccc1C(=O)Nc1ccccn1)c1ccco1
97 | 50 nM | Nc1cc(-c2ccc3ncnc(N4CCOCC4)c3c2)cnc1N
98 | 630 nM | CCOC(=O)c1noc(N)c1-c1ccccc1
99 | 630 nM | Cc1cc(=O)n2nc(Oc3ccc(C#N)cc3Cl)sc2n1
100 | 500 nM | COc1cc(Cl)c(C)cc1NC(=O)c1ccc([N+](=O)[O-])s1
101 | 500 nM | CCc1cccc(CC)c1-n1c(SCC(=O)N2CC(=O)Nc3ccccc32)nnc1-c1cccnc1
102 | 200 nM | CC(C)S(=O)(=O)c1ccc(-c2cnc(N)c3cc(-c4ccnc(N)n4)ccc23)cc1
103 | 250 nM | O=C(Cc1ccccc1)Nc1ccccc1C(=O)Nc1nccs1
104 | 63 nM | N#Cc1cnc(Nc2cccc(CCN3CCOCC3)c2)nc1Nc1ccccc1C(N)=O
105 | 630 nM | O=c1ccc2ccc(F)c3c2n1C[C@H]3CN1CCC(NCc2cc3ccccc3o2)CC1
106 | 200 nM | CC(C)(C)c1csc(NC(=O)c2ccc([N+](=O)[O-])s2)n1
107 | 160 nM | Cc1[nH]n2c(=O)c3c(nc2c1-c1ccc(Cl)cc1)CCCC3
108 | 250 nM | CCOc1ccc(N(C)S(=O)(=O)c2ccc3[nH]cc(C(=O)NC4CCCC4)c(=O)c3c2)cc1
109 | 10 nM | CS(=O)(=O)N1CCC(Nc2ncc(Br)c(Nc3cccc(F)c3C(N)=O)n2)CC1
110 | 630 nM | COc1ccc(CN2C(=O)C(O)(CC(=O)c3ccncc3)c3cc(Br)ccc32)cc1OC (stereo not given)
